Measured values published in patent US9309284B2 (priority 2012, dated 2016).

Assays:
NV 3CL protease = NV 3CL protease (Norovirus, UniProt Q83883); assay: biochemical; design: species or system norovirus strain Norwalk
[1] = test system: NV in replicon-harboring cells; assay: cell-based norovirus replicon system (NV replicon-harboring cells, HG23); details: Norwalk virus, α-hydroxyphosphonates, mixtures of epimers
cells = assay: cell cytotoxicity (microscopy and CytoTox 96 assay); assay type: cell-based
Text: Cell Cytotoxicity. The nonspecific cytotoxic effects of each compound on cells were monitored by observation under a microscopy and CytoTox 96 Non-radioactive cytotoxicity assay (Promega, Madison, Wis.).

EV71 3C protease = EV71 3C protease (Human enterovirus 71, UniProt Q66478); assay: biochemical
Chain of EV71 3C protease (Q66478 1549-1731 limits assumed): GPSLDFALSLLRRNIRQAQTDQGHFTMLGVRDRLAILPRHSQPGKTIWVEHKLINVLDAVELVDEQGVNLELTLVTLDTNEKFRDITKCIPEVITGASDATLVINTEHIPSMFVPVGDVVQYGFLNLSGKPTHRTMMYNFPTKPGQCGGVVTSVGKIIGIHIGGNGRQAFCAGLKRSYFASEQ

SARS-CoV 3CL protease = SARS-CoV 3CL protease (Severe acute respiratory syndrome coronavirus, UniProt P0C6X7); assay: biochemical

Chain of NV 3CL protease (Q83883 1101-1281 limits assumed): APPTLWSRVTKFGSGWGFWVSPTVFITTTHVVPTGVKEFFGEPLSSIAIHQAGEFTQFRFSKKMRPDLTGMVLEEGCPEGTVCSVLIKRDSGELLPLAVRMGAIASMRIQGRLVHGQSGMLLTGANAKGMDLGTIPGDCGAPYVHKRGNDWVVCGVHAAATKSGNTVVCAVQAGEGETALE

In the case of `O=C(N[C@@H](CC1CCCCC1)C(=O)N[C@@H](CC1CCNC1=O)C(O)P(=O)(OCc1ccccc1)OCc1ccccc1)OCc1ccccc1` (mixture of isomers) [Compound 7h], the IC50 (NV 3CL protease) is reported as over 50 µM and the EC50 [1] is reported as 0.6 µM.
`COP(=O)(OC)C(O)[C@H](CC1CCNC1=O)NC(=O)[C@H](CC1CCCCC1)NC(=O)OCc1ccccc1` (mixture of isomers) [Compound 7e] showed an IC50 (NV 3CL protease) of over 50 µM and an EC50 [1] of 2.8 µM.
`O=CC(CC1CCNC1=O)NC(=O)C(CC1CCCCC1)N1C(=O)CCC(NC(=O)OCc2ccccc2)C1=O` (centres unmarked) [Compound 5, Benzyl(1-(3-cyclohexyl-1-oxo-1-((1-oxo-3-(2-oxopyrrolidin-3-yl)propan-2-yl)amino)propan-2-yl)-2,6-dioxopperidin-3-yl)carbamate] was tested, and the “toxicity to cells (no toxicity up to)” value (cells) was over 150 µM.
With `CC(C)C[C@@H]1NC(=O)[C@@H](NC(=O)OCc2ccccc2)Cc2cn(nn2)CCCNC(=O)CC[C@@H](C=O)NC1=O` [Compound 13, Benzyl(9-formyl-12-isobutyl-6,11,14-trioxo-1,5,10,13,18,19-hexaazabicyclo[15.2.1]icosa-17(20),18-dien-15-yl)carbamate] the IC50 (NV 3CL protease) was 5.1 µM, the IC50 (EV71 3C protease) was 1.8 µM and the IC50 (SARS-CoV 3CL protease) was 15.5 µM.
`COP(=O)(OC)C(O)[C@H](CC1CCNC1=O)NC(=O)[C@H](CC(C)C)NC(=O)OCc1ccccc1` (mixture of isomers) [Compound 7b] was tested, and the IC50 (NV 3CL protease) was over 50 µM and the EC50 [1] was 3.5 µM.
For `CCOP(=O)(OCC)C(O)[C@H](CC1CCNC1=O)NC(=O)[C@H](CC1CCCCC1)NC(=O)OCc1ccccc1` (mixture of isomers) [Compound 7d], the IC50 (NV 3CL protease) was over 50 µM and the EC50 [1] was 0.25 µM.
`CCOP(=O)(OCC)C(O)[C@H](CC1CCNC1=O)NC(=O)[C@H](CC(C)C)NC(=O)OCc1ccccc1` (mixture of isomers) [Compound 7a] was tested, and the IC50 (NV 3CL protease) was over 50 µM and the EC50 [1] was 1.1 µM.
`CCCCOP(=O)(OCCCC)C(O)[C@H](CC1CCNC1=O)NC(=O)[C@H](CC1CCCCC1)NC(=O)OCc1ccccc1` (mixture of isomers) [Compound 7f] showed an IC50 (NV 3CL protease) of over 50 µM and an EC50 [1] of 0.5 µM.
`CC(C)C[C@H](NC(=O)OCc1ccccc1)C(=O)N[C@@H](CC1CCNC1=O)C(O)P(=O)(O)O` (mixture of isomers) [Compound 7c] gave an IC50 (NV 3CL protease) of over 50 µM and an EC50 [1] of 0.8 µM.
`O=C(N[C@@H](CC1CCCCC1)C(=O)N[C@@H](CC1CCNC1=O)C(O)P(=O)(OCC(F)(F)F)OCC(F)(F)F)OCc1ccccc1` (mixture of isomers) [Compound 7g] gave an IC50 (NV 3CL protease) of over 50 µM and an EC50 [1] of 0.25 µM.
